Data taken from patent publication US20160296529A1, “AMINOTRIAZOLOPYRIDINE FOR USE IN THE TREATMENT OF INFLAMMATION, AND PHARMACEUTICAL COMPOSITIONS THEREOF” (priority 2012, published 2016).
Read-outs that look alike come from different tables or passages of the source.

How the values were obtained:
[1] = Single dose pharmacokinetics in human; assay type: in vivo; conditions: for AUC: plasma, po, human, capsules, read-out: exposure (expressed as AUC)
Description: Serial blood samples were collected over 72 h to determine plasma concentrations of the compounds according to Formula II and Formula I using a validated liquid chromatography-mass spectrometry/mass spectrometry (LC-MS/MS) method with a limit of quantification of 1.00 ng/mL. PK parameters were assessed using a statistical analysis package (WinNonLin (Pharsight, Sunnyvale, Calif.: CA 94086, USA).
Mean plasma concentration-time profiles of the compound according to Formula II and the compound according to Formula I were measured.
In order to show the comparative exposures of the two compounds, the AUC of the compounds according to Formula I and the compound according to Formula II were calculated. The AUC value represents the total exposure of the compound in the species after dosing. These values were then expressed as a ratio of AUC of the compound according to Formula I: AUC of the compound according to Formula II in FIG. 4. From this ratio it can clearly be seen that there was a significant difference in exposure to a compound according to Formula I after administration of a compound according to Formula II in human compared to the exposure seen in animals for therapeutically equivalent doses. Without wanting to be bound by theory, it was believed that this difference was related to the difference in the apparent terminal half-life in the different species.

[2] = Target inhibition: circulating levels in healthy volunteers as multiples of whole blood assay IC50; assay type: in vivo, human
Description: The compound according to Formula II was dosed daily in healthy volunteers at 200 mg QD and 100 mg BID.
The resulting levels of Formula II and Formula I were then measured and plotted (FIG. 5) as multiples of their respective IC50 as determined by the Whole Blood assay described above in Example 3.4.

rat CIA model = experiment: CIA model 1 (rat collagen induced arthritis, clinical score); assay type: in vivo, Dark Agouti rats; design: key to Rat CIA Clinical Score: sum of 4 paws, each 0 = no symptoms to 4 = maximal; max 16; conditions: for Rat CIA Clinical Score: Formula II 6 mg/kg
Description: Complete Freund's adjuvant (CFA) and Incomplete Freund's adjuvant (IFA) were purchased from Difco. Bovine collagen type II (CII), lipopolysaccharide (LPS), and Enbrel® was obtained from Chondrex (Isle d'Abeau, France); Sigma (P4252, L'Isle d'Abeau, France), Whyett (25 mg injectable syringe, France), Acros Organics (Palo Alto, Calif.), respectively. All other reagents used were of reagent grade and all solvents were of analytical grade.
Dark Agouti rats (male, 7-8 weeks old) were obtained from Harlan Laboratories (Melderslo, Netherlands). Rats were kept on a 12 hr light/dark cycle (0700-1900). Temperature was maintained at 22° C., and food and water were provided ad libitum.
One day before the experiment, CII solution (2 mg/mL) was prepared with 0.05 M acetic acid and stored at 4° C. Just before the immunization, equal volumes of adjuvant (IFA) and CII were mixed by a homogenizer in a pre-cooled glass bottle in an ice water bath. Extra adjuvant and prolonged homogenization may be required if an emulsion was not formed. 0.2 mL of the emulsion was injected intradermally at the base of the tail of each rat on day 1, a second booster intradermal injection (CII solution at 2 mg/mL in CFA 0.1 mL saline) was performed on day 9. This immunization method was modified from published methods (Sims et al, 2004; Jou et al., 2005).
The therapeutic effects of the compounds were tested in the rat CIA model. Rats were randomly divided into equal groups and each group contained 10 rats. All rats were immunized on day 1 and boosted on day 9. Therapeutic dosing lasts from day 16 to day 30. The negative control group was treated with vehicle (MC 0.5%) and the positive control group with Enbrel® (10 mg/kg, 3× week., s.c.). A compound of interest was typically tested at 3 doses, e.g. 6, 10, 60 mg/kg, q.d., p.o.
Arthritis was scored according to the method of Khachigian 2006, Lin et al 2007 and Nishida et al. 2004). The swelling of each of the four paws was ranked with the arthritic score as follows: 0—no symptoms; 1—mild, but definite redness and swelling of one type of joint such as the ankle or wrist, or apparent redness and swelling limited to individual digits, regardless of the number of affected digits; 2—moderate redness and swelling of two or more types of joints; 3—severe redness and swelling of the entire paw including digits; 4—maximally inflamed limb with involvement of multiple joints (maximum cumulative clinical arthritis score 16 per animal) (Nishida et al., 2004).
To permit the meta-analysis of multiple studies the clinical score values were normalised as follows:
AUC of clinical score (AUC score): The area under the curve (AUC) from day 1 to day 14 was calculated for each individual rat. The AUC of each animal was divided by the average AUC obtained for the vehicle in the study from which the data on that animal was obtained and multiplied by 100 (i.e. the AUC was expressed as a percentage of the average vehicle AUC per study).
Clinical score increase from day 1 to day 14 (End point score): The clinical score difference for each animal was divided by the average clinical score difference obtained for the vehicle in the study from which the data on that animal was obtained and multiplied by 100 (i.e. the difference was expressed as a percentage of the average clinical score difference for the vehicle per study).

## O=C(Nc1nc2cccc(-c3ccc(CN4CCS(=O)(=O)CC4)cc3)n2n1)C1CC1 [Formula II, Cyclopropanecarboxylic acid {5-[4-(1,1-dioxo-thiomorpholin-4-ylmethyl)-phenyl]-[1,2,4]triazolo[1,5-a]pyridin-2-yl}-amide]
[1]; oral, human plasma, single dose (10-200 mg) of Formula II as capsules, read-out: mean apparent terminal elimination half-life
  half-life: 300 to 480 min
[1]; after Formula II 10 mg single dose
  AUC: 128 ng·h/mL
[1]; after Formula II 25 mg single dose
  AUC: 331 ng·h/mL
[1]; after Formula II 50 mg single dose
  AUC: 735 ng·h/mL
[1]; after Formula II 100 mg single dose
  AUC: 1690 ng·h/mL
[1]; after Formula II 200 mg single dose
  AUC: 4500 ng·h/mL
[2]; Formula II at 100 mg BID, time point 0 h
  Ratio [blood circulating dose]/[circulating dose at IC50 quantity]: 0.09
[2]; Formula II at 100 mg BID, time point 0.5 h
  Ratio [blood circulating dose]/[circulating dose at IC50 quantity]: 0.12
[2]; Formula II at 100 mg BID, time point 1 h
  Ratio [blood circulating dose]/[circulating dose at IC50 quantity]: 0.48
[2]; Formula II at 100 mg BID, time point 2 h
  Ratio [blood circulating dose]/[circulating dose at IC50 quantity]: 1.28
[2]; Formula II at 100 mg BID, time point 3 h
  Ratio [blood circulating dose]/[circulating dose at IC50 quantity]: 1.71
[2]; Formula II at 100 mg BID, time point 5 h
  Ratio [blood circulating dose]/[circulating dose at IC50 quantity]: 0.88
[2]; Formula II at 100 mg BID, time point 8 h
  Ratio [blood circulating dose]/[circulating dose at IC50 quantity]: 0.26
[2]; Formula II at 100 mg BID, time point 12 h
  Ratio [blood circulating dose]/[circulating dose at IC50 quantity]: 0.09
[2]; Formula II at 100 mg BID, time point 12.5 h
  Ratio [blood circulating dose]/[circulating dose at IC50 quantity]: 0.12
[2]; Formula II at 100 mg BID, time point 13 h
  Ratio [blood circulating dose]/[circulating dose at IC50 quantity]: 0.48
[2]; Formula II at 100 mg BID, time point 14 h
  Ratio [blood circulating dose]/[circulating dose at IC50 quantity]: 1.28
[2]; Formula II at 100 mg BID, time point 15 h
  Ratio [blood circulating dose]/[circulating dose at IC50 quantity]: 1.71
[2]; Formula II at 100 mg BID, time point 17 h
  Ratio [blood circulating dose]/[circulating dose at IC50 quantity]: 0.88
[2]; Formula II at 100 mg BID, time point 20 h
  Ratio [blood circulating dose]/[circulating dose at IC50 quantity]: 0.26
[2]; Formula II at 100 mg BID, time point 24 h
  Ratio [blood circulating dose]/[circulating dose at IC50 quantity]: 0.09
[2]; Formula II at 200 mg QD, time point 0 h
  Ratio [blood circulating dose]/[circulating dose at IC50 quantity]: 0.02
[2]; Formula II at 200 mg QD, time point 0.5 h
  Ratio [blood circulating dose]/[circulating dose at IC50 quantity]: 0.46
[2]; Formula II at 200 mg QD, time point 1 h
  Ratio [blood circulating dose]/[circulating dose at IC50 quantity]: 3.14
[2]; Formula II at 200 mg QD, time point 2 h
  Ratio [blood circulating dose]/[circulating dose at IC50 quantity]: 3.88
[2]; Formula II at 200 mg QD, time point 3 h
  Ratio [blood circulating dose]/[circulating dose at IC50 quantity]: 3.16
[2]; Formula II at 200 mg QD, time point 5 h
  Ratio [blood circulating dose]/[circulating dose at IC50 quantity]: 1.31
[2]; Formula II at 200 mg QD, time point 8 h
  Ratio [blood circulating dose]/[circulating dose at IC50 quantity]: 0.36
[2]; Formula II at 200 mg QD, time point 24 h
  Ratio [blood circulating dose]/[circulating dose at IC50 quantity]: 0.11
Rat CIA model; day 18
  Rat CIA Clinical Score: 3.0
Rat CIA model; day 19
  Rat CIA Clinical Score: 3.6
Rat CIA model; day 20
  Rat CIA Clinical Score: 4.2
Rat CIA model; day 21
  Rat CIA Clinical Score: 5.1
Rat CIA model; day 24
  Rat CIA Clinical Score: 5.2
Rat CIA model; day 25
  Rat CIA Clinical Score: 5.1
Rat CIA model; day 26
  Rat CIA Clinical Score: 4.9
Rat CIA model; day 27
  Rat CIA Clinical Score: 5.2
Rat CIA model; day 28
  Rat CIA Clinical Score: 5.4
Rat CIA model; dosed alone
  activity in the CIA rat model: active
